Test results taken from US20100075918A1, “HYALURONIDASE INHIBITORS AS ANTI-CANCER AGENTS” (priority 2006, published 2010).

Assays:
HYAL1-type HAase = biological target: T1, HYAL1-type HAase (Homo sapiens, UniProt Q12794); experiment: HAase ELISA-like assay, inhibition of HYAL1 activity; format: biochemical
T1 construct: HYAL1 cDNA encoding the full-length protein inserted into an expression vector; made in house
T1 sequence (Q12794 22-435): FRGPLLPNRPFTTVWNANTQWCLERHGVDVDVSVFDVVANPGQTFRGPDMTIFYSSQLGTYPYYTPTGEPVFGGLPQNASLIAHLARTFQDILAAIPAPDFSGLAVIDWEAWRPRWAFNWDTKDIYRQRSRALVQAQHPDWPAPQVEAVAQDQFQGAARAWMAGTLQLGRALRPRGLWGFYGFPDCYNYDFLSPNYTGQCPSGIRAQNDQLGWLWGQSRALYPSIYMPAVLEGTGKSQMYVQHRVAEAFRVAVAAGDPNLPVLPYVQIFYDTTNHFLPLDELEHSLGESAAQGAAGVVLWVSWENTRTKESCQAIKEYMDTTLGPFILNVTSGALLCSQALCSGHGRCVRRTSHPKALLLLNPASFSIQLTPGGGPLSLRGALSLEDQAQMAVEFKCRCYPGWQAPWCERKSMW
Method: Briefly, a stable HYAL1-expressing clone having about 40 mU/mL activity was expanded in T75 cm^2 flasks.
A microtiter well plate coated with human umbilical cord HA (MP Biomedicals; Irvine, Calif.) was incubated with about 40 mU/mL of HYAL1-type HAase in the presence or absence of various HAase inhibitors in assay buffer. For the HYAL1-type activity assay, 0.1 M sodium formate, 0.15 M NaCl, and 0.02% bovine serum albumin buffer (pH 4.2) was used as the assay buffer.
The effect of HAase inhibitors on the activity of HYAL1-type HAase was tested at 0, 1, 2, 4, 6, 8, 10, 20, 40, 60, 80 and 100 μg/mL concentrations of each inhibitor. […] Each plate was developed for 3 min and the reaction was terminated by adding 3 N HCl. HAase activity (mU/mL) was calculated from a standard graph prepared by plotting known amounts of Streptomyces HAase (10^−4 U/mL) versus (Control (no enzyme) OD405 nm-Sample OD405 nm). […] The data presented are mean ±SEM from duplicate measurements in two independent experiments.

[1] = tested on: HYAL1, testicular, honeybee, and Streptomyces hyaluronidases (HAases); conditions: Isoyama et al. (2006); 21 potential inhibitors; cited from earlier work
HYAL1 = biological target: T2, HYAL1 (Homo sapiens, UniProt Q12794); conditions: Isoyama et al. (2006); cited from earlier work
T2 sequence (Q12794 22-435): T1 sequence (Q12794 22-435)

[2] = about 40 mU/mL HYAL1-type HAase, pH 4.2, 37° C. for 16 hours, N.D. = no inhibition detected

Row | Compound | IC50 (μg/mL), inhibition of HYAL1 activity (HYAL1-type HAase; [2]) | also measured
1 | CCCCCCCCCCCCCCS(=O)(=O)O [1-Tetradecane sulfonic acid, 1-tetradecane sulfonic acid] | – | IC50 (HYAL1-type HAase; about 40 mU/mL HYAL1-type HAase, pH 4.2, 37° C. for 16 hours, N.D. = no inhibition detected, read-out: IC50 (μg/mL), inhibition of HYAL1 activity (converted)): 67.9 µM; Effectiveness as HAase inhibitor [1]: not effective HAase inhibitors
2 | CC1(C)[C@@H](O[C@H]2O[C@H](C(=O)O)[C@@H](O)[C@H](O)[C@H]2O[C@@H]2O[C@H](C(=O)O)[C@@H](O)[C@H](O)[C@H]2O)CC[C@]2(C)[C@H]3C(=O)C=C4[C@@H]5C[C@@](C)(C(=O)O)CC[C@]5(C)CC[C@@]4(C)[C@]3(C)CC[C@@H]12 [Glycerrhizic acid, glycerrhizic acid] | 32.4 µg/mL | Effectiveness as HAase inhibitor [1]: not effective HAase inhibitors
3 | O=C([O-])CC([S-])C(=O)[O-].[Au+].[Na+].[Na+] (stereo not drawn) [sodium aurothiomalate] | – | Effectiveness as HAase inhibitor [1]: not effective HAase inhibitors
4 | Heparin | 15.1 µg/mL | HYAL1 inhibition (HYAL1): potent inhibitor
5 | poly(styrene-4-sulfonate) [PSS 17,000] | 15.2 µg/mL | –
6 | poly(styrene-4-sulfonate) [PSS 32,000] | 13.5 µg/mL | –
7 | poly(styrene-4-sulfonate) [PSS 49,000] | 15.2 µg/mL | –
8 | poly(styrene-4-sulfonate) [PSS 77,000] | 14.8 µg/mL | –
9 | poly(styrene-4-sulfonate) [PSS 150,000] | 10.5 µg/mL | –
10 | poly(styrene-4-sulfonate) [PSS 210] | – | IC50 for HYAL1 (HYAL1): no inhibition
11 | poly(styrene-4-sulfonate) [PSS 350,000] | 13.15 µg/mL | –
12 | poly(styrene-4-sulfonate) [PSS 990,000] | 9.6 µg/mL | IC50 (HYAL1): 0.0096 µM
13 | poly(styrene-4-sulfonate) [PSS 1400] | 26.8 µg/mL | IC50 to inhibit HYAL1 activity, fold higher than that for PSS 999,000 and PSS 17,000 (HYAL1-type HAase): 2.5 fold
14 | poly(styrene-4-sulfonate) [PSS 4300] | 8.48 µg/mL | –
15 | poly(styrene-4-sulfonate) [PSS 6800] | 22.71 µg/mL | IC50 to inhibit HYAL1 activity, fold higher than that for PSS 999,000 and PSS 17,000 (HYAL1-type HAase): 2.5 fold
